The record followed here is patent US12286428B2 (BRISTOL-MYERS SQUIBB COMPANY, priority 2019, dated 2025).

Each structure is given as a SMILES string.

In assay [1] the test system is Human whole blood, IL-6 levels after TLR2 agonist lipoteichoic acid. As to the kind of experiment: IRAK4 Whole Blood Assay. Format: cell-based. As to conditions: compounds 60 minutes at 37° C., lipoteichoic acid 10 μg/mL for 5 hours. How it is done: IRAK4 Whole Blood Assay Human whole blood containing the anti-coagulant ACD-A was plated in 384-well plate (25 μL/well) and incubated with compounds for 60 minutes at 37° C. in a 5% CO2 incubator. The blood was stimulated with a TLR2 agonist, 10 μg/mL final concentration of lipoteichoic acid (Invivogen, San Diego, CA) in 25 μL RPMI (Gibco) for 5 hours in a 5% CO2 incubator. At the end of the incubation, plates were centrifuged at 2300 rpm for 5 minutes. Supernatants were harvested and analyzed for IL-6 levels by Flow Cytometry beads assay (BD Biosciences, San Jose, CA).

Assay [2] deals with T1, IRAK4 (Homo sapiens, UniProt Q9NWZ3).
T1 sequence (Q9NWZ3 1-460): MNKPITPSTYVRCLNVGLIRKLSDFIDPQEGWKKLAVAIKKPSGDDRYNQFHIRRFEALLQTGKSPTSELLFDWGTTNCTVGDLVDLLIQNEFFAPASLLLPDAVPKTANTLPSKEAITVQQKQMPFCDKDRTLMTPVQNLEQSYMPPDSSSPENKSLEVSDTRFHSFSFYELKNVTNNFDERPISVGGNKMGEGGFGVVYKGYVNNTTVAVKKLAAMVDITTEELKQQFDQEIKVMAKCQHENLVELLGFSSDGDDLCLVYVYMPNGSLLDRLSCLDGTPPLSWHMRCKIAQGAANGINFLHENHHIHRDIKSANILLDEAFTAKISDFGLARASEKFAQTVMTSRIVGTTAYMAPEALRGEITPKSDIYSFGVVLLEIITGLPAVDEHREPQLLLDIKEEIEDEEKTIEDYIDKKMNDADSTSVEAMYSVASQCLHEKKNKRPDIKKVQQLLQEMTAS
The assay can be described thus: IRAK4 Inhibition Assay. Format: biochemical. Particulars: ATP 500 μM; FL-IPTSPITTTYFFFKKK peptide […]; IRAK4 0.6 nM; 60 min room temperature; Caliper LABCHIP 3000. Here is the method: The assays were performed in U-bottom 384-well plates. […] The reaction was initiated by the combination of IRAK4 with substrates and test compounds. The reaction mixture was incubated at room temperature for 60 min. and terminated by adding 45 μL of 35 mM EDTA to each sample. The reaction mixture was analyzed on the Caliper LABCHIP® 3000 (Caliper, Hopkinton, MA) by electrophoretic separation of the fluorescent substrate and phosphorylated product. […] The final concentrations of reagents in the assays are ATP, 500 μM; FL-[…] peptide 1.5 μM; IRAK4, 0.6 nM; and DMSO, 1.6%.

By IC50 is commonly meant the midpoint of a concentration-inhibition curve. With `CC[C@H]1CC(=O)N[C@@H]1COc1cccc2cc(C(N)=O)c3nccn3c12` [Example 3, 9-(((2S,3S)-3-ethyl-5-oxopyrrolidin-2-yl)methoxy)imidazo[1,2-a]quinoline-4-carboxamide], the results for the IC50 in assay [1] and in assay [2] were 152 nM and 1.7 nM, respectively.
The matching figures for `CC[C@H]1[C@@H](COc2cccc3cc(C(N)=O)c4nccn4c23)NC(=O)[C@@H]1F` [Example 4, 9-(((2S,3S,4R)-3-ethyl-4-fluoro-5-oxopyrrolidin-2-yl)methoxy)imidazo[1,2-a]quinoline-4-carboxamide]: 593 nM and 2.6 nM.
The matching figures for `CC[C@@H]1[C@H](F)C(=O)N[C@@H]1COc1cccc2cc(C(N)=O)c3nccn3c12` [Example 5, 9-(((2S,3S,4S)-3-ethyl-4-fluoro-5-oxopyrrolidin-2-yl)methoxy)imidazo[1,2-a]quinoline-4-carboxamide]: 280 nM and 1.3 nM.
As for `CC[C@H]1[C@@H](COc2cccc3cc(C(N)=O)c4nccn4c23)NC(=O)C1(F)F` [Example 10, 9-(((2S,3S)-3-ethyl-4,4-difluoro-5-oxopyrrolidin-2-yl)methoxy)imidazo[1,2-a]quinoline-4-carboxamide], the 50% inhibitory concentration (IC50) in assay [1] is 1390 nM; in assay [2] it was 1.9 nM.
Regarding `CC[C@@H]1CC(=O)N[C@@H]1COc1cccc2cc(C(N)=O)c3nc(C)cn3c12` [Example 11, 9-(((2S,3R)-3-ethyl-5-oxopyrrolidin-2-yl)methoxy)-2-methylimidazo[1,2-a]quinoline-4-carboxamide], the IC50 stood at 3460 nM in assay [1] and 3.4 nM in assay [2].
In the case of `CC[C@@H]1[C@H](F)C(=O)N[C@@H]1COc1cccc2cc(C(N)=O)c3nc(C)cn3c12` [Example 12, 9-(((2S,3S,4S)-3-ethyl-4-fluoro-5-oxopyrrolidin-2-yl)methoxy)-2-methylimidazo[1,2-a]quinoline-4-carboxamide], the IC50 is 10000 nM in assay [1] and 2.2 nM in assay [2].
For `CC[C@@H]1CC(=O)N[C@@H]1COc1ccc(F)c2cc(C(N)=O)c3nccn3c12` [Example 14, 9-(((2S,3R)-3-ethyl-5-oxopyrrolidin-2-yl)methoxy)-6-fluoroimidazo[1,2-a]quinoline-4-carboxamide], the IC50 was found to be 557 nM in assay [1] and 1 nM in assay [2].
Turning to `CC[C@@H]1[C@H](F)C(=O)N[C@@H]1COc1ccc(F)c2cc(C(N)=O)c3nccn3c12` [Example 15, 9-(((2S,3S,4S)-3-ethyl-4-fluoro-5-oxopyrrolidin-2-yl)methoxy)-6-fluoroimidazo[1,2-a]quinoline-4-carboxamide], the IC50 in assay [1] stood at 2650 nM; in assay [2], 8.2 nM.
As for `CC[C@@H]1CC(=O)N[C@@H]1COc1nccc2cc(C(N)=O)c3nccn3c12` [Example 16, 1-(((2S,3R)-3-ethyl-5-oxopyrrolidin-2-yl)methoxy)imidazo[1,2-a][1,7]naphthyridine-6-carboxamide], the values for the IC50 in assay [1] and in assay [2] were 1520 nM and 11 nM, respectively.
In the case of `CC[C@@H]1[C@H](F)C(=O)N[C@@H]1COc1nccc2cc(C(N)=O)c3nccn3c12` [Example 17, 1-(((2S,3S,4S)-3-ethyl-4-fluoro-5-oxopyrrolidin-2-yl)methoxy)imidazo[1,2-a][1,7]naphthyridine-6-carboxamide], the figures for the IC50 in assay [1] and in assay [2] were 94 nM and 4.7 nM, respectively.
Consider `CC[C@@H]1CC(=O)N[C@@H]1COc1nccc2cc(C(N)=O)c3nc(C)cn3c12` [Example 18, 1-(((2S,3R)-3-ethyl-5-oxopyrrolidin-2-yl)methoxy)-8-methylimidazo[1,2-a][1,7]naphthyridine-6-carboxamide], for which the IC50 in assay [1] was 20000 nM; in assay [2], 19.7 nM.
On to `CC[C@@H]1[C@H](F)C(=O)N[C@@H]1COc1nccc2cc(C(N)=O)c3nc(C)cn3c12` [Example 19, 1-(((2S,3S,4S)-3-ethyl-4-fluoro-5-oxopyrrolidin-2-yl)methoxy)-8-methylimidazo[1,2-a][1,7]naphthyridine-6-carboxamide], for which the IC50 in assay [1] was found to be 485 nM; in assay [2], 3.2 nM.
